Measurements as given in PubChem BioAssay AID330 (DTP/NCI, 2004).
Where “and” joins values, the source holds several entries; their conditions need not be identical. Equal values may be shown once. Inconclusive results and toxic doses are left out.

Tested on: P388 leukemia ip, CD2F1 mice, survival T/C
Assay: NCI In Vivo Anticancer Drug Screen. Data for tumor model P388 Leukemia (intraperitoneal) in CD2F1 (CDF1) mice
Conditions: endpoint: median survival time, higher = longer survival
How it was run: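 Mice carrying the transplanted tumor received test compound or vehicle. Survival was recorded in each group, and the value is the treated-group measurement divided by that of the vehicle-treated control group.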

[1] = dose: 60.0 mg/kg/injection, schedule: Q01DX005 (ip), vehicle: saline with Tween-80
[2] = dose: 120.0 mg/kg/injection, schedule: Q01DX005 (ip), vehicle: saline with Tween-80
[3] = dose: 240.0 mg/kg/injection, schedule: Q01DX005 (ip), vehicle: saline with Tween-80
[4] = dose: 50.0 mg/kg/injection, schedule: Q01DX005 (ip), vehicle: saline with Tween-80
[5] = dose: 100.0 mg/kg/injection, schedule: Q01DX005 (ip), vehicle: saline with Tween-80
[6] = dose: 200.0 mg/kg/injection, schedule: Q01DX005 (ip), vehicle: saline with Tween-80
[7] = dose: 100.0 mg/kg/injection, schedule: Q04DX002 (ip), vehicle: saline with Tween-80
[8] = dose: 200.0 mg/kg/injection, schedule: Q04DX002 (ip), vehicle: saline with Tween-80
[9] = dose: 400.0 mg/kg/injection, schedule: Q04DX002 (ip), vehicle: saline with Tween-80
[10] = dose: 12.5 mg/kg/injection, schedule: Q01DX009 (ip), vehicle: saline with Tween-80
[11] = dose: 25.0 mg/kg/injection, schedule: Q01DX009 (ip), vehicle: saline with Tween-80
[12] = dose: 50.0 mg/kg/injection, schedule: Q01DX009 (ip), vehicle: saline with Tween-80
[13] = dose: 100.0 mg/kg/injection, schedule: Q01DX009 (ip), vehicle: saline with Tween-80
[14] = dose: 200.0 mg/kg/injection, schedule: Q01DX009 (ip), vehicle: saline with Tween-80
[15] = dose: 100.0 mg/kg/injection, schedule: Q01DX001 (ip), vehicle: Klucel (hydroxypropylcellulose) (HPC)
[16] = dose: 50.0 mg/kg/injection, schedule: Q01DX005 (ip), vehicle: Klucel (hydroxypropylcellulose) (HPC)
[17] = dose: 100.0 mg/kg/injection, schedule: Q01DX005 (ip), vehicle: Klucel (hydroxypropylcellulose) (HPC)
[18] = dose: 200.0 mg/kg/injection, schedule: Q01DX005 (ip), vehicle: Klucel (hydroxypropylcellulose) (HPC)
[19] = dose: 25.0 mg/kg/injection, schedule: Q01DX005 (ip), vehicle: saline with Tween-80

c1cc2cc(c1)CSCc1cccc(c1)CSCc1cccc(c1)CSC2
T/C (dose: 50.0 mg/kg/injection, schedule: Q04DX002 (ip), vehicle: saline): 96 % of control
T/C (dose: 100.0 mg/kg/injection, schedule: Q04DX002 (ip), vehicle: saline): 93 % of control
T/C (dose: 200.0 mg/kg/injection, schedule: Q04DX002 (ip), vehicle: saline): 93 % of control

O=S(=O)(c1cc(Cl)ccc1Cl)N(CCCCCN(S(=O)(=O)c1cc(Cl)ccc1Cl)S(=O)(=O)c1cc(Cl)ccc1Cl)S(=O)(=O)c1cc(Cl)ccc1Cl
T/C [1]: 99 % of control
T/C [2]: 96 % of control
T/C [3]: 95 % of control

COc1ccc2[nH]c(=O)c(Br)c(C)c2c1
T/C [4]: 101 % of control
T/C [5]: 95 % of control
T/C [6]: 100 % of control

CCc1nc(N)nc(N)c1-c1ccc(N=[N+]=[N-])c(Cl)c1
T/C [7]: 160 % of control
T/C [8]: 116 % of control
T/C [9]: 90 % of control

O=[N+]([O-])c1ccc2nc(CCl)[nH]c2c1
T/C [10]: 103 % of control
T/C [11]: 116 % of control
T/C [12]: 99 % of control and 111 % of control

O=C1CSC(c2cccnc2)N1CCN1C(=O)CSC1c1cccnc1 (stereo not drawn)
T/C [1]: 105 % of control
T/C [7]: 112 % of control
T/C [2]: 105 % of control
T/C [8]: 112 % of control
T/C [3]: 101 % of control
T/C [9]: 109 % of control

N=Nc1c(OC(=O)Nc2cccc(Cl)c2)[nH]c2ccccc12
T/C [12]: 94 % of control
T/C [13]: 90 % of control
T/C [14]: 93 % of control

O=[N+]([O-])c1cccc(N/N=C\c2cccc3c(/C=N/Nc4cccc([N+](=O)[O-])c4)c(Cl)n(-c4ccccc4)c23)c1
T/C [15]: 86 % of control

Cc1ccc(NC(=S)NC2C(=O)Nc3ccccc32)cc1 (stereo not drawn)
T/C (dose: 100.0 mg/kg/injection, schedule: Q01DX001 (ip), vehicle: saline with Tween-80): 92 % of control
T/C (dose: 200.0 mg/kg/injection, schedule: Q01DX001 (ip), vehicle: saline with Tween-80): 93 % of control
T/C (dose: 400.0 mg/kg/injection, schedule: Q01DX001 (ip), vehicle: saline with Tween-80): 87 % of control

S=c1cn[nH]c2ccc(S)cc12
T/C [4]: 88 % of control
T/C [5]: 99 % of control
T/C [6]: 97 % of control

COC(=O)/C(C#N)=C/c1ccc(NC(C)=O)cc1
T/C [16]: 93 % of control
T/C [17]: 94 % of control
T/C [18]: 88 % of control

CCCCCCCCCCCCCCCC[N+](C)(C)CCOS(C)(=O)=O
T/C [10]: 110 % of control
T/C [11]: 116 % of control

CCOc1ccccc1N=Nc1c(-c2ccccc2)nn(C(N)=S)c1-c1ccccc1
T/C [4]: 100 % of control
T/C [5]: 108 % of control
T/C [6]: 101 % of control

COC(=O)C1(OC(C)=O)C(=O)NC2=C1C(=O)c1ccccc1C2=O (stereo not drawn)
T/C (dose: 12.5 mg/kg/injection, schedule: Q01DX005 (ip), vehicle: saline with Tween-80): 102 % of control
T/C [19]: 104 % of control
T/C [4]: 110 % of control and 113 % of control

NN1C(=O)C2C3C=CC(O3)C2C1=O (stereo not drawn)
T/C (dose: 50.0 mg/kg/injection, schedule: Q01DX005 (ip), vehicle: saline): 98 % of control
T/C (dose: 100.0 mg/kg/injection, schedule: Q01DX005 (ip), vehicle: saline): 98 % of control
T/C (dose: 200.0 mg/kg/injection, schedule: Q01DX005 (ip), vehicle: saline): 100 % of control

OC(CCC(O)(C(F)(F)F)C(F)(F)F)(C(F)(F)F)C(F)(F)F
T/C (dose: 6.25 mg/kg/injection, schedule: Q01DX005 (ip), vehicle: saline): 99 % of control
T/C (dose: 12.5 mg/kg/injection, schedule: Q01DX005 (ip), vehicle: saline): 101 % of control
T/C (dose: 25.0 mg/kg/injection, schedule: Q01DX005 (ip), vehicle: saline): 100 % of control
T/C [4]: 103 % of control

c1ccc2sc(-c3ccncc3)nc2c1
T/C [12]: 102 % of control
T/C [13]: 99 % of control
T/C [14]: 108 % of control

c1cc2ccc1CSCCCSCc1ccc(cc1)CSCCCSC2
T/C (dose: 25.0 mg/kg/injection, schedule: Q01DX009 (ip), vehicle: suspension in saline): 100 % of control
T/C (dose: 50.0 mg/kg/injection, schedule: Q01DX009 (ip), vehicle: suspension in saline): 92 % of control
T/C (dose: 100.0 mg/kg/injection, schedule: Q01DX009 (ip), vehicle: suspension in saline): 98 % of control

OC1COC(c2ccccc2)OC1C1OC(c2ccccc2)OC2COC(c3ccccc3)OC21 (stereo not drawn)
T/C [12]: 107 % of control
T/C [13]: 96 % of control
T/C [14]: 97 % of control

C#CC1=CC(=O)C(OC)=CC1=O
T/C (dose: 7.5 mg/kg/injection, schedule: Q01DX005 (ip), vehicle: Klucel (hydroxypropylcellulose) (HPC)): 99 % of control
T/C (dose: 15.0 mg/kg/injection, schedule: Q01DX005 (ip), vehicle: Klucel (hydroxypropylcellulose) (HPC)): 100 % of control

O=S(=O)(NCCSSCCNS(=O)(=O)c1cccs1)c1cccs1
T/C (dose: 50.0 mg/kg/injection, schedule: Q01DX009 (ip), vehicle: Klucel (hydroxypropylcellulose) (HPC)): 88 % of control
T/C (dose: 100.0 mg/kg/injection, schedule: Q01DX009 (ip), vehicle: Klucel (hydroxypropylcellulose) (HPC)): 92 % of control
T/C (dose: 200.0 mg/kg/injection, schedule: Q01DX009 (ip), vehicle: Klucel (hydroxypropylcellulose) (HPC)): 100 % of control

O=C1CSC(c2cccs2)N1c1nccs1 (stereo not drawn)
T/C [16]: 102 % of control
T/C [17]: 106 % of control
T/C [18]: 100 % of control

NCCCn1[nH]c(=O)c2cccnc2c1=O
T/C [1]: 101 % of control
T/C [2]: 100 % of control
T/C [3]: 95 % of control

CCN(CC)c1nc(Cl)nc(N(CC)CC)n1
T/C [19]: 99 % of control and 97 % of control
T/C [4]: 103 % of control [middle of 4 runs]
T/C [5]: 106 % of control and 101 % of control and 107 % of control
T/C [6]: 113 % of control [middle of 4 runs]
T/C (dose: 400.0 mg/kg/injection, schedule: Q01DX005 (ip), vehicle: saline with Tween-80): 100 % of control

Cc1cc(=O)[nH]c(N/N=C/c2c(O)ccc3ccccc23)n1
T/C [10]: 93 % of control
T/C [11]: 88 % of control
T/C [12]: 87 % of control
T/C [13]: 102 % of control

CC1CC2(CC(CN(C3CCCCC3)C3CCCCC3)OC2=O)C(=O)O1 (stereo not drawn)
T/C [4]: 104 % of control
T/C [5]: 102 % of control
T/C [6]: 96 % of control

CC(=O)NC(CO)C(=O)c1ccc(S(=O)(=O)c2ccccc2)cc1 (stereo not drawn)
T/C [13]: 97 % of control
T/C [14]: 91 % of control
T/C (dose: 400.0 mg/kg/injection, schedule: Q01DX009 (ip), vehicle: saline with Tween-80): 94 % of control

Cc1nnc2sc(/C=C/c3ccccc3)nn12
T/C [15]: 101 % of control
T/C (dose: 200.0 mg/kg/injection, schedule: Q01DX001 (ip), vehicle: Klucel (hydroxypropylcellulose) (HPC)): 102 % of control
T/C (dose: 400.0 mg/kg/injection, schedule: Q01DX001 (ip), vehicle: Klucel (hydroxypropylcellulose) (HPC)): 101 % of control

[I][Ga]([I])[I]
T/C [11]: 116 % of control
T/C [12]: 111 % of control
T/C [13]: 100 % of control
T/C (dose: 100.0 mg/kg/injection, schedule: Q04DX003 (ip), vehicle: saline sonified): 100 % of control

COc1c(-c2ccccc2)cc(-c2ccccc2)c(-c2ccccc2)c1-c1ccccc1
T/C [7]: 93 % of control
T/C [8]: 86 % of control
T/C [9]: 89 % of control

CCCCCCCC(=O)NCCCC(C)Nc1cc(OC)cc2cccnc12 (stereo not drawn)
T/C [1]: 106 % of control
T/C [2]: 99 % of control

CC1(C)CO/C(=C/C(=O)c2ccccc2)N1C(=O)c1ccccc1
T/C [1]: 99 % of control
T/C [2]: 90 % of control

c1ccc(SCCC(Sc2ccccc2)Sc2ccccc2)cc1
T/C (dose: 50.0 mg/kg/injection, schedule: Q01DX009 (ip), vehicle: saline): 100 % of control
T/C (dose: 100.0 mg/kg/injection, schedule: Q01DX009 (ip), vehicle: saline): 106 % of control
T/C (dose: 200.0 mg/kg/injection, schedule: Q01DX009 (ip), vehicle: saline): 106 % of control

Cc1ccc(S(=O)(=O)/N=C2\CCN(S(=O)(=O)c3ccccc3)N2S(=O)(=O)c2ccc(C)cc2)cc1
T/C [16]: 99 % of control
T/C [17]: 90 % of control
T/C [18]: 94 % of control

CNCCOC(=O)/C=C1\CC[C@H]2[C@@H]([C@@H](O)C(=O)[C@@H]3[C@]2(C)CC[C@H](O)[C@]3(C)C(=O)OC)[C@H]1C
T/C (dose: 3.0 mg/kg/injection, schedule: Q01DX009 (ip), vehicle: saline): 100 % of control
T/C (dose: 6.0 mg/kg/injection, schedule: Q01DX009 (ip), vehicle: saline): 97 % of control
T/C (dose: 12.0 mg/kg/injection, schedule: Q01DX009 (ip), vehicle: saline): 109 % of control
T/C (dose: 12.5 mg/kg/injection, schedule: Q01DX009 (ip), vehicle: saline): 114 % of control
